Results published in ChEMBL document CHEMBL6109134, “Discovery of AMG 193, an MTA-Cooperative PRMT5 Inhibitor for the Treatment of MTAP-Deleted Cancers” (J Med Chem, 2025).
Values after ≈ are worked out from the molar mass of the structure shown.

Tests used:
HCT-116 [1] = test: Antiproliferative activity against MTAP-deleted human HCT-116 cells assessed as effect on cell viability incubated for 6 days by Celltiter-Glo luminescent cell viability assay; format: functional, cell-based; settings: HCT-116, 144 h
HCT-116 [2] = test: Antiproliferative activity against human HCT-116 cells harboring wildtype MTAP assessed as effect on cell viability incubated for 6 days by Celltiter-Glo luminescent cell viability assay; format: functional, cell-based; settings: HCT-116, 144 h
[3] = Metabolic stability in mouse liver microsomes assessed as intrinsic clearance at 0.5 uM incubated for 40 mins in presence of NADPH; format: ADME, Microsome; settings: read-out: CLH
[4] = Unbound clearance in CD-1 mouse at 1 mg/kg, iv; format: ADME, organism-based; settings: in vivo
U-87 MG = test: Antiproliferative activity against human U-87 MG cells assessed as effect on cell viability; format: functional, cell-based, U-87MG ATCC
[5] = Solubility of compound in SIF at pH 6.8
Cytochrome P450 3A4 = Cytochrome P450 3A4 (Homo sapiens, UniProt P08684); test: Inhibition of CYP3A4 (unknown origin)
Cytochrome P450 3A4, sequence (P08684 whole entry): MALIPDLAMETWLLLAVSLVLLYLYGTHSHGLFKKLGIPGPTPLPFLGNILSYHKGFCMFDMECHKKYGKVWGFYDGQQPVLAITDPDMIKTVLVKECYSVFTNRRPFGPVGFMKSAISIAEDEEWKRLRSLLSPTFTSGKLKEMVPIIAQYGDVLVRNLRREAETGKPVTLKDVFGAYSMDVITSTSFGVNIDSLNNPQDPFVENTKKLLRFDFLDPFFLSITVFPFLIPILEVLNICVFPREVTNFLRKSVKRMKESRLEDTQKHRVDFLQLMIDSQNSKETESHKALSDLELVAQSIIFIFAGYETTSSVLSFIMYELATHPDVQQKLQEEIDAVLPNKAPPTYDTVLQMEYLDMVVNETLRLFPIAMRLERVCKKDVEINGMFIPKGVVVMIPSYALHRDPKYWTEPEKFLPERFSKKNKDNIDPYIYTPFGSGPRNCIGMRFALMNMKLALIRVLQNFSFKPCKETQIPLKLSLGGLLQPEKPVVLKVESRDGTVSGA

[6] = Metabolic stability in human hepatocytes assessed as intrinsic clearance measured per 10^6 cells; format: ADME, cell-based, Hepatocyte; settings: read-out: CLH
[7] = Metabolic stability in mouse hepatocytes assessed as intrinsic clearance measured per 10^6 cells; format: ADME, cell-based, Hepatocyte; settings: read-out: CLH
[8] = Unbound clearance in Sprague-Dawley rat at 0.5 mg/kg, iv; format: ADME, organism-based; settings: in vivo
[9] = target: Protein arginine N-methyltransferase 5 (Homo sapiens) (UniProt O14744); test: Binding affinity to PRMT5 (unknown origin) assessed as occupancy in presence of MTA by SPR analysis relative to control
Protein arginine N-methyltransferase 5 (Homo sapiens), sequence (O14744 whole entry): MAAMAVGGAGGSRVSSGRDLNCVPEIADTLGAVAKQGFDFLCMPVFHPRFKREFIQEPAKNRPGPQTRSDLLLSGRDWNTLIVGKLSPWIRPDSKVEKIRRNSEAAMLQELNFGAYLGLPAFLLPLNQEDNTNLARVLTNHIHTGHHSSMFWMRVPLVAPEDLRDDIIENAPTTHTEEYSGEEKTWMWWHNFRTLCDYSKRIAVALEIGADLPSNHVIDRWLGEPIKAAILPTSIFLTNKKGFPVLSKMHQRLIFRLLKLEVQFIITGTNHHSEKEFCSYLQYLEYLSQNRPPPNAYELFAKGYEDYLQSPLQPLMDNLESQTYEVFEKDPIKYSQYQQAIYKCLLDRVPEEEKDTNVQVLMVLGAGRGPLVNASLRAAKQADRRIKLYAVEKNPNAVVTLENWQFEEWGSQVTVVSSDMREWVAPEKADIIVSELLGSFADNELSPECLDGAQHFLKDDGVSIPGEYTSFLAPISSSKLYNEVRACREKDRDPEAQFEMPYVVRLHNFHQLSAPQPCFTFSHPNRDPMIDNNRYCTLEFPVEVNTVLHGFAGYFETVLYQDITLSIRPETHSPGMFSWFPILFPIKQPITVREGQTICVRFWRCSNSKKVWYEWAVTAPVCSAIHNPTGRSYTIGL

[10] = target: Protein arginine N-methyltransferase 5 (Homo sapiens) (UniProt O14744); test: Selectivity ratio of dissociation rate for binding affinity to PRMT5 (unknown origin) in presence of SAM to dissociation rate for binding affinity to PRMT5 (unknown origin) in presence of MTA
[11] = Toxicity in female rat up to 25 mg/kg, po administered as single dose for 14 days; format: organism-based; settings: in vivo, 336 h, time 14 day
[12] = Toxicity in male rat up to 75 mg/kg, po administered as single dose for 14 days; format: organism-based; settings: in vivo, 336 h, time 14 day
[13] = Mutagenicity in Salmonella typhimurium by Ames test; format: toxicity; settings: salmonella enterica subsp. enterica serovar typhimurium
[14] = target: T1, Broad substrate specificity ATP-binding cassette transporter ABCG2 (Homo sapiens, UniProt Q9UNQ0); test: Effect on BCRP (unknown origin)-mediated transport up to 10 uM
T1 sequence (Q9UNQ0 whole entry): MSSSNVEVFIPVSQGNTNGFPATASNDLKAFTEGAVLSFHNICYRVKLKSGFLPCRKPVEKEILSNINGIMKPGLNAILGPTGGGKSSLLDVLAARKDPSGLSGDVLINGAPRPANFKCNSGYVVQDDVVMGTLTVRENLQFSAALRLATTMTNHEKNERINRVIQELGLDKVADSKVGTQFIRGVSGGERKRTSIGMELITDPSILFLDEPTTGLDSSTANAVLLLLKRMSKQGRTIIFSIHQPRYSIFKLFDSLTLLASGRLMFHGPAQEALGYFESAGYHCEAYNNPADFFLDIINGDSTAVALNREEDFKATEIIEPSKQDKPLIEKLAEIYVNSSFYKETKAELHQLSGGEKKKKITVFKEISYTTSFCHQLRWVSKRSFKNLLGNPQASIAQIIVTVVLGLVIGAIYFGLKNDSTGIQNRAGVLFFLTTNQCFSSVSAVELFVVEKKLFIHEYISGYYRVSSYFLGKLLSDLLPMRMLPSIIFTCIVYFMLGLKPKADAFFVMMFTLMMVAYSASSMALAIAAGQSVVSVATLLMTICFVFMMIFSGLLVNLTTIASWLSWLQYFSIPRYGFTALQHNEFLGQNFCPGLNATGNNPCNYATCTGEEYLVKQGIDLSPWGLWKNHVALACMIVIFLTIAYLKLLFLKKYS

[15] = Unbound brain-to-plasma concentration ratio in female Sprague-Dawley rat at 25 mg/kg, po administered as single dose; format: ADME, organism-based; settings: read-out: K(p,uu,brain)
[16] = Unbound brain-to-plasma concentration ratio in male Sprague-Dawley rat at 75 mg/kg, po administered as single dose; format: ADME, organism-based; settings: read-out: K(p,uu,brain)
[17] = target: DNA (cytosine-5)-methyltransferase 1 (Homo sapiens) (UniProt P26358); test: Activation of human DNMT1 at 10 uM relative to control
DNA (cytosine-5)-methyltransferase 1 (Homo sapiens), sequence (P26358 whole entry): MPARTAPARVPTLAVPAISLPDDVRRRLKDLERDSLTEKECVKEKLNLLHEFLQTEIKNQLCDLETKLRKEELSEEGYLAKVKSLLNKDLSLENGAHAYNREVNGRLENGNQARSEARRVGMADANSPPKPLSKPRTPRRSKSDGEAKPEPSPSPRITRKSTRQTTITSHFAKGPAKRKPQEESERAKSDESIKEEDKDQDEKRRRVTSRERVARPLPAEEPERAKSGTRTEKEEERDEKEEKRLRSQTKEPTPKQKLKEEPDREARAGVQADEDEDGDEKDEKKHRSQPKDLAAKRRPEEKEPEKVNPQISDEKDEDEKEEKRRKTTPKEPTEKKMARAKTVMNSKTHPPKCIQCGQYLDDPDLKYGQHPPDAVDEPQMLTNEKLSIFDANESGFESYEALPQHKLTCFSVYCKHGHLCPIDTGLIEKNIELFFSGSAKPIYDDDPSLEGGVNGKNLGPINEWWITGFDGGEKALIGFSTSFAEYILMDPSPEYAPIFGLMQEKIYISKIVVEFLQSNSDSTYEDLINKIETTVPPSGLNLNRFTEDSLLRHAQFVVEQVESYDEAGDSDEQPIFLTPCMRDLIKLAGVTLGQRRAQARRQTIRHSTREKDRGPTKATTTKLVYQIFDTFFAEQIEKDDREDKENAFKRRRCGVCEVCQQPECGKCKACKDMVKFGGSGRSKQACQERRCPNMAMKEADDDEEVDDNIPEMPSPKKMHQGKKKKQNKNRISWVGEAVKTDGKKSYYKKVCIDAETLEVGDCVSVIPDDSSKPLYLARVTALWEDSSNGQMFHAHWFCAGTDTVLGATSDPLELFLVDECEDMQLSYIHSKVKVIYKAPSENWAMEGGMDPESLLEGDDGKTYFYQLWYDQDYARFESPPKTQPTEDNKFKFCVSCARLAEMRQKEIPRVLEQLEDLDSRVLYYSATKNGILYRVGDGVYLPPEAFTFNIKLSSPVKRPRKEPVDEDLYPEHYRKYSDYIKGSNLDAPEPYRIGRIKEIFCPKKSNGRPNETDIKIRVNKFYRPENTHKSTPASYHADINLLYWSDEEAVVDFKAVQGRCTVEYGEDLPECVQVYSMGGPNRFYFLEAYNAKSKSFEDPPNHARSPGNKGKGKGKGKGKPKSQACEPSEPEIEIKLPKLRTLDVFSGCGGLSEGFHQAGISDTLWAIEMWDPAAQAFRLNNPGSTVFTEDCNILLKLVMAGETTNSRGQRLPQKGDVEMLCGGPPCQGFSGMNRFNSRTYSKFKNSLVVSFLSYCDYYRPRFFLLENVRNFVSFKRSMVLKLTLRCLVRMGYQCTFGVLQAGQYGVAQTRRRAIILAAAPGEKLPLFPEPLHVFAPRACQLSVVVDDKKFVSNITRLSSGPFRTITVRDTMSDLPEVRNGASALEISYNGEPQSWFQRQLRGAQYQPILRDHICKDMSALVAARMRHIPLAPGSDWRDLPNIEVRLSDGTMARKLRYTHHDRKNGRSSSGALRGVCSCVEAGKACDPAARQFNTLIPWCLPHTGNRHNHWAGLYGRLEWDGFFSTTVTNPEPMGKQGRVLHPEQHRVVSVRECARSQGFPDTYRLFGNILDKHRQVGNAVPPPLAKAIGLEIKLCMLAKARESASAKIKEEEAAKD

[18] = target: Protein arginine N-methyltransferase 5 (Homo sapiens) (UniProt O14744); test: In vivo inhibition of PRMT5 in athymic nude mouse xenografted with human HCT-116 cells harboring wildtype MTAP assessed as decrease in SDMA level in tumor at 100 mg/kg, po administered once daily for 4 days and measured 4 hrs post last dose by ELISA relative to control; format: functional, organism-based; settings: time 4.0 day
[19] = target: Protein arginine N-methyltransferase 5 (Homo sapiens) (UniProt O14744); test: In vivo inhibition of PRMT5 in athymic nude mouse xenografted with MTAP-deleted human HCT-116 cells assessed as decrease in SDMA level in tumor at 3 mg/kg, po administered once daily for 4 days and measured 4 hrs post last dose by ELISA relative to control; format: functional, organism-based; settings: time 4.0 day
HCT-116 [20] = test: Antitumor activity against MTAP-deleted human HCT-116 cells xenografted in female athymic nude mouse model assessed as tumor growth inhibition at 100 mg/kg, po administered once daily for 14 days relative to control; format: functional; settings: HCT-116, 336 h, time 14 day, read-out: TGI
[21] = Toxicity in female athymic nude mouse xenografted with human HCT-116 cells harboring wildtype MTAP assessed as body weight change at 3 to 100 mg/kg, po administered once daily for 14 days; format: organism-based; settings: in vivo, 336 h, dose 3-100 mg/kg, time 14 day
[22] = Toxicity in female athymic nude mouse xenografted with MTAP-deleted human HCT-116 cells assessed as body weight change at 3 to 100 mg/kg, po administered once daily for 14 days; format: organism-based; settings: in vivo, 336 h, dose 3-100 mg/kg, time 14 day
BXPC-3 = test: Antitumor activity against MTAP-deleted human BXPC-3 cells xenografted in athymic nude mouse model assessed as tumor growth inhibition at 100 mg/kg, po administered once daily for 26 days and measured 24 hrs post last dose relative to control; format: functional; settings: BXPC-3, 648 h, time 27 day, read-out: TGI
[23] = Drug uptake in plasma of athymic nude mouse xenografted with MTAP-deleted human BXPC-3 cells at 10 to 100 mg/kg, po administered once daily for 26 days and measured 24 hrs post last dose by LC-SRM/MS analysis; format: ADME, organism-based; settings: in vivo, 648 h, dose 10-100 mg/kg, time 27 day
[24] = Antitumor activity against MTAP-deleted human U-87 MG cells xenografted in female athymic nude mouse model assessed as tumor growth inhibition at 30 mg/kg, po administered once daily for 14 days and measured 24 hrs post last dose relative to control; format: functional, U-87MG ATCC; settings: 360 h, time 15 day, read-out: TGI
[25] = Toxicity in female athymic nude mouse xenografted with MTAP-deleted human U-87 MG cells assessed as effect on body weight at 10 to 100 mg/kg, po administered once daily for 14 days; format: organism-based; settings: in vivo, 336 h, dose 10-100 mg/kg, time 14 day
PRMT5/MEP50 complex = PRMT5/MEP50 complex (Homo sapiens, UniProt O14744)
PRMT5/MEP50 complex, sequence (O14744 whole entry): as the sequence (O14744 whole entry) above
PRMT5/MEP50 complex, sequence (Q9BQA1 whole entry, further chain): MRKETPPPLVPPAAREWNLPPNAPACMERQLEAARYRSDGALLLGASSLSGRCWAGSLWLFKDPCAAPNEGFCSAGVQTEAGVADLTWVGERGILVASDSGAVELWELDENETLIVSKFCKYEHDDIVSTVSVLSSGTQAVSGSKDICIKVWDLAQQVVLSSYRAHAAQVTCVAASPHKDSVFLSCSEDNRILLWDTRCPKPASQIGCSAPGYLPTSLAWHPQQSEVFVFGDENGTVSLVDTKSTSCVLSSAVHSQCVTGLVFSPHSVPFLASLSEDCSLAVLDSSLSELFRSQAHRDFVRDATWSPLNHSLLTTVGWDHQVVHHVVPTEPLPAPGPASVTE
Description: Inhibition of PRMT5/MEP50 (unknown origin) preincubated with compound for 24 hrs in presence of SAM and MTA followed by Histone H4 (1-21)-Lys(Biotin) peptide addition and measured after 2 hrs by MTase-Glo reagent based assay

in vivo = settings: Sprague-Dawley, rat, po, 2 mg/kg, pH 2

Nc1nc2cnc(C(=O)N3CCOC[C@@H]3c3ccc(C(F)(F)F)cc3)cc2c2c1COC2
IC50 (HCT-116 [1]): 102 nM | IC50 (HCT-116 [2]): 4330 nM | microsomal CLint at 0.5 µM [3]: 37 µL/min/mg | CL free [4]: 142 mL/min/kg | IC50 (U-87 MG): 357 nM | solubility [5]: 335 µM (≈ 149 µg/mL) | IC50 (Cytochrome P450 3A4): 124000 nM | hepatocyte CLint [6]: 6 µL/min/1e6 cells | hepatocyte CLint [7]: 13 µL/min/1e6 cells | CL free [8]: 283 mL/min/kg | Occ [9]: 70% | Selectivity ratio [10]: 60 | Activity [11]: Non-toxic | Activity [12]: Non-toxic | Activity [13]: Non-toxic | Activity [14]: Not_active | Kp uu [15]: 0.14 | Kp uu [16]: 0.15 | Activity [17]: 32% | inhibition [18]: 79% | inhibition [19]: 69% | inhibition in vivo at 100 mg/kg (HCT-116 [20]): 87% | Activity [21]: Non-toxic | Activity [22]: Non-toxic | inhibition in vivo at 100 mg/kg (BXPC-3): 96% | Drug uptake [23]: Active | inhibition in vivo at 30 mg/kg [24]: 57% | Activity [25]: Non-toxic | Ki (PRMT5/MEP50 complex): < 0.1 nM | bioavailability (in vivo): 60%
